Laboratory results published in patent US20040003424A1, “Transgenic cardiomyocytes with controlled proliferation and differentiation” (Board of Regents, The University of Texas System, priority 2002, published 2004).
No end group written: not given here.

Legend:
Format in all cases: cell-based, mouse
NkL-TAg cells = experiment: Induction of differentiation of NkL-TAg cells, sarcomeric α-actinin immunocytochemistry; settings: for sarcomere formation as assessed by α-actinin immunocytochemistry: NkL-TAg cells prior to depletion of TAg; for induction of sarcomere formation: NkL-TAg cells after removal of TAg, in differentiation medium (5% horse serum, insulin, transferrin, selenium)
Protocol: (§1) Cell Culture. Cells were isolated from sub-endocardial tumor-like structures in the hearts of transgenic mice as previously described with some modifications (Paradis et al, 1996). Briefly, dissected tissues were minced and dissociated using an enzyme mix containing 0.2% […] (Worthington) and 0.6 mg/ml of pancreatin (Sigma). Cardiac cells derived from Nk-TAg and NkL-TAg mice were maintained in DMEM/F12 media supplemented with 100 IU/ml penicillin, 100 μg/ml streptomycin, 2 mM Lglutamine, and 10% fetal bovine serum (FBS) on plates coated with […] fibronectin and 0.1% 2 gelatin. Cloning cylinders were used to harvest cell clones. Cell growth curves were generated by plating 1.5×10^5 or 2×10^5 cells (as indicated) in growth medium onto 100 mm plates and counting total cell number every 24 hours for 5 days. Differentiation medium contains DMEM/F12 supplemented with 100 IU/ml penicillin, 100 μg/ml streptomycin, 2 mM L-glutamine, 5% heat inactivated horse serum, […], […] and 6.7 ng/ml sodium selenite.
Histochemical Analysis. Heart tissue was fixed in 10% phosphate-buffered formalin and stained with hematoxylin-eosin. Nk-TAg and NkL-TAg cells were cultured on coverslips and fixed for 10 minutes with either −20° C. methanol or 4% paraformaldehyde for immunohistochemistry. Blocking was performed by incubating fixed cells with 1.5% bovine serum albumin and 10% normal goat serum in PBS for 20 minutes. […] Secondary antibodies conjugated to either FITC or Texas Red (1:200, Vector Labs) were diluted in PBS and incubated for 30 minutes at room temperature. In some cases, nuclei were co-stained with DAPI (10 mg/ml) for 1 minute. Coverslips were mounted with Vectashield (Vector Laboratories) and fluorescence or confocal images were captured using Leica DMRXE or Zeiss 3.95 microscopes, respectively.
Viral Infection. Cells were infected with recombinant adenoviruses (Ad) at a multiplicity of infection (MOI) of 100 for 3 to 12 hrs. The medium was replaced with growth medium, and NkL-TAg cells were cultured for the indicated times before analyses. Recombinant adenoviruses were obtained from the following sources: Ad-Cre recombinase (Ad-Cre) was provided by Dr. Frank Graham (McMaster University) (Anton and Graham, 1995); GATA4 (Ad-GATA4), Nkx2.5 (Ad-Nkx2.5), MEK6 (Ad-MEK6), and GFP (Ad-GFP) were generated using the “Easy-Track” system as described (He et al., 1998); antisense HDAC4 and HDAC5 (Ad-HDAC4 or 5), expressing coding regions of HDAC genes in reverse orientation, were provided by Chun Zhang; MEF2C (Ad-MEF2C) was provided by Rebekka Nicol (HDAC 4/5 and MEF2c viruses were generated using pAC-CMV vector); constitutively active calcineurin (Ad-CnA), IGF-I receptor (Ad-IGFI), constitutively active CaMKI (Ad-CaMKI), β-galactosidase (Ad-LacZ) were generated by Dr. Robert Gerard (UT Southwestern) and were constructed using an in vitro Cre-lox recombination system (Aoki et al., 1999; Ng et al. 1999).

Nk-TAg cells [1] = experiment: α-actinin immunohistochemistry and sarcomere assembly in Nk-TAg cells; settings: for assembly of sarcomeres: hypertrophic agents added (20 nM ET-1, 100 mM [sic] PE, 1 mM [sic] angiotensin II)
Protocol: Histochemical Analysis. Heart tissue was fixed in 10% phosphate-buffered formalin and stained with hematoxylin-eosin. Nk-TAg and NkL-TAg cells were cultured on coverslips and fixed for 10 minutes with either −20° C. methanol or 4% paraformaldehyde for immunohistochemistry. Blocking was performed by incubating fixed cells with 1.5% bovine serum albumin and 10% normal goat serum in PBS for 20 minutes. Primary antibodies were incubated for 30-60 minutes in 1.5% bovine serum albumin in PBS as follows: monoclonal anti-myosin (smooth) (1:100, Sigma), polyclonal antimyosin (skeletal) (1:100, Sigma), monoclonal anti-α-smooth muscle actin (1:100, Sigma), monoclonal anti-skeletal myosin (slow) (1:100, Sigma), polyclonal anti-connexin 43 (1:100, Sigma), monoclonal anti-α-sarcomeric actin clone 5C5 (1:100, Sigma), monoclonal anti-desmin (1:100, Sigma), monoclonal anti-calponin (1:100, Sigma), monoclonal anti-α-actinin (sarcomeric) clone EA-53 (1:200, Sigma), monoclonal anti-SV40 T antigen (1:100, Santa Cruz). Secondary antibodies conjugated to either FITC or Texas Red (1:200, Vector Labs) were diluted in PBS and incubated for 30 minutes at room temperature. In some cases, nuclei were co-stained with DAPI (10 mg/ml) for 1 minute. Coverslips were mounted with Vectashield (Vector Laboratories) and fluorescence or confocal images were captured using Leica DMRXE or Zeiss 3.95 microscopes, respectively.
Drug treatment. Drugs were added into cell culture media as indicated at the following concentrations: 100 mM phenylephrine (PE), 10 mM norepinephrine (NE), 10 ng/ml recombinant human transforming growth factor-β1 (TGFβ1) (R&D Systems), 1 mM dynorphin-β (Peninsula Laboratories), 1 mM trans- or cis-retinoic acid (Sigma), 15 ng/ml bone morphogenetic protein (BMP)-2/4 (Genetics Institute, Cambridge, Mass.), 1 mM angiotensin II (R&D Systems), 20 nM endothelin-1 (ET-1) (R&D Systems), 100 ng/ml insulin-like growth factor I (IGF-I) (Roche), 5-azacytidine (Sigma), and 10 mg/ml mitomycin C (Sigma).

Nk-TAg cells [2] = experiment: Proliferation of Nk-TAg cardiac cell lines; settings: drug added to the growth medium; mitomycin C 10 mg/ml as printed
Protocol: as §1
Drug treatment. […]

Molecule | sarcomere formation as assessed by α-actinin immunocytochemistry (NkL-TAg cells) | further results
bFGF: basic fibroblast growth factor | no effect | –
endothelin-1 (CSCSSLMDKECVYFCHLDIIW; ends and bridges not checked; cysteine pairing not given here; UniProt P05305 53-73, looked up) [ET-1] | – | assembly of sarcomeres (Nk-TAg cells [1]): did not further induce the assembly of sarcomeres
Nc1ncn([C@@H]2O[C@H](CO)[C@@H](O)[C@H]2O)c(=O)n1 [5-azacytidine] | no effect | –
Cn1c(=O)c2c(ncn2C)n(C)c1=O [caffeine] | no effect | –
dynorphin-β | no effect | –
CO[C@@]12[C@H](COC(N)=O)C3=C(C(=O)C(C)=C(N)C3=O)N1C[C@@H]1N[C@@H]12 [mitomycin C] | – | proliferation of the Nk-TAg cells (Nk-TAg cells [2]): abated proliferation; expression of α-actinin (Nk-TAg cells [1]; immunohistochemistry, in the cytoplasm as unassembled Z-lines, mitomycin C 10 mg/ml as printed): enhanced expression of α-actinin
IGF-I: insulin-like growth factor I (Roche) | no effect | –
C[C@H](CCC(=O)O)C[C@H](C)C[C@H](C)C(=O)/C=C(\O)[C@H](C)C[C@H](C)C/C=C/[C@@H](C)[C@@H](O)[C@@H](C)[C@@H](O)C[C@@H]1CC[C@@](C)([C@H]2CC[C@@](C)([C@@H](C)O)O2)O1 [ionomycin] | no effect | –
NC[C@H](O)c1ccc(O)c(O)c1 [NE, norepinephrine] | no effect | induction of sarcomere formation (NkL-TAg cells): further induction of sarcomere formation in some cells
angiotensin II (DRVYIHPF; Angiotensin-2; UniProt P01019 25-32, looked up) | – | assembly of sarcomeres (Nk-TAg cells [1]): did not further induce the assembly of sarcomeres
[Cl-].[K+] [potassium chloride] | no effect | –
CC1=C(/C=C/C(C)=C/C=C/C(C)=C\C(=O)O)C(C)(C)CCC1 [cis-retinoic acid] | no effect | –
TGFb1: recombinant human transforming growth factor-β1 (R&D Systems) | no effect | –
CC1=C(/C=C/C(C)=C/C=C/C(C)=C/C(=O)O)C(C)(C)CCC1 [trans-retinoic acid] | no effect | –
CNC[C@H](O)c1cccc(O)c1 [PE, phenylephrine] | no effect | induction of sarcomere formation (NkL-TAg cells): further induction of sarcomere formation in some cells; assembly of sarcomeres (Nk-TAg cells [1]): did not further induce the assembly of sarcomeres
